From ChEMBL document CHEMBL4334548, “Discovery of Isoxazole Amides as Potent and Selective SMYD3 Inhibitors” (ACS Med Chem Lett, 2020) come the findings set out here.

A short description of series [1]: Solubility of compound by CLND method. It counts as physicochemical.
Series [2] is described as follows: AUC in Sprague-Dawley rat at 5 mg/kg, po. It counts as ADME, organism-based. The settings on record: in vivo.
Series [3] can be described thus: Oral bioavailability in Sprague-Dawley rat at 5 mg/kg. It is filed as ADME, organism-based. The note with it: in vivo.
A short description of series [4]: Volume of distribution in Sprague-Dawley rat at 1 mg/kg, iv or 5 mg/kg, po. It is filed as ADME, organism-based. The settings on record: in vivo.
The nature of series [5]: Permeability of compound. The note with it: not told; read-out: permeability. It counts as ADME.
Series [6] can be described thus: Half life in Sprague-Dawley rat at 1 mg/kg, iv or 5 mg/kg, po. The settings on record: in vivo. It counts as ADME, organism-based.

Each structure is given as a SMILES string. Values after ≈ are worked out from the molar mass of the structure shown.

With `CS(=O)(=O)N1CCC(NC(=O)c2cc(C3CC3)on2)CC1`, the solubility (kinetic) in series [1] is 55 µM (≈ 17.2 µg/mL). Besides, the AUC in series [2] turned out to be 2142 ng·h/mL. Also, in series [3], the F came to 79%. The compound also showed a Vd in series [4] of 1.2 L/kg. Besides, in series [5], the Papp worked out at 12 ×10⁻⁶ cm/s. In series [6], the half-life is 150 min.

A word on the kinetic solubility: it is the concentration staying in solution when a stock, usually in DMSO, is diluted into the medium. As a reminder, the AUC is concentration integrated over time. A high value points to high exposure. The half-life is the time in which the quantity being followed falls by half. Low readings indicate fast loss, high ones slow loss.
